Laboratory results reported in ChEMBL document CHEMBL4507276 (2021).

Key:
[1] = target: Phosphatidylinositol 4-kinase beta (Homo sapiens) (UniProt Q9UBF8); conditions: Compound concentration 1000.0 nM
[2] = target: Ribosomal protein S6 kinase alpha-6 (Homo sapiens) (UniProt Q9UK32); assay: RPS6KA6 Invitrogen selectivity data (BI); conditions: Compound concentration 3.0 uM
[3] = target: T1, cAMP-dependent protein kinase catalytic subunit PRKX (Homo sapiens) (UniProt P51817); assay: PRKX Invitrogen selectivity data (BI); conditions: Compound concentration 3.0 uM
T1 sequence (whole entry): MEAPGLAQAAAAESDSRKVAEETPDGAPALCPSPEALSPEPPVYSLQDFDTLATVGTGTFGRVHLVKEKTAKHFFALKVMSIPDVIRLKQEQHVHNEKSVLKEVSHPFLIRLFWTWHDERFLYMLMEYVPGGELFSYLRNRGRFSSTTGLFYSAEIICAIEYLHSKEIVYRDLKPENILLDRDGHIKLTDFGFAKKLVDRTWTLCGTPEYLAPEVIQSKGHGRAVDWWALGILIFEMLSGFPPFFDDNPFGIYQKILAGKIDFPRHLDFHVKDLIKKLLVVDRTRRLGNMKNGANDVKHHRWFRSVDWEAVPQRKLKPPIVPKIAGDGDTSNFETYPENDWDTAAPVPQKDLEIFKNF

[4] = target: Sodium channel regulatory subunit beta-1 (Rattus norvegicus) (UniProt Q00954); assay: NA+/SITE2/R Cerep selectivity data (BI); conditions: Compound concentration 20.0 uM
[5] = target: Phosphatidylinositol 4-kinase alpha (Homo sapiens) (UniProt P42356); assay: PI4KA Invitrogen selectivity data (BI); conditions: Compound concentration 3.0 uM
[6] = target: Macrophage-stimulating protein receptor (Homo sapiens) (UniProt Q04912); assay: MST1R Invitrogen selectivity data (BI); conditions: Compound concentration 3.0 uM
[7] = target: Interleukin-1 receptor-associated kinase 1 (Homo sapiens) (UniProt P51617); assay: IRAK1 Invitrogen selectivity data (BI); conditions: Compound concentration 3.0 uM
[8] = target: Guanylate cyclase soluble subunit alpha-1 (Bos taurus) (UniProt P19687); assay: GUACYCBASAL Cerep selectivity data (BI); conditions: Homo sapiens; Compound concentration 20.0 uM
[9] = target: T2, Testis-specific serine/threonine-protein kinase 3 (Homo sapiens) (UniProt Q96PN8); assay: STK22D Invitrogen selectivity data (BI); conditions: Compound concentration 3.0 uM
T2 sequence (whole entry): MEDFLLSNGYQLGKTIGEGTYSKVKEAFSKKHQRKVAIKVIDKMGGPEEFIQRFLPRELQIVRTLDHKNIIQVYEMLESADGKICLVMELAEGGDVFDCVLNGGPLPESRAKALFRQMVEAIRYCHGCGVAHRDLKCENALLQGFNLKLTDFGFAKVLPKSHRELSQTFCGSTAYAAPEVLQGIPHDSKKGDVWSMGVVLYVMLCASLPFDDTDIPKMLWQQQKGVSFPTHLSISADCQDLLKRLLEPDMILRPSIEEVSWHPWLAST

[10] = target: Glutamate receptor ionotropic, NMDA 2A (Rattus norvegicus) (UniProt Q00959); assay: NMDAPHSI/R Eurofins-Panlabs selectivity data (BI); conditions: Compound concentration 10.0 uM
[11] = target: Calcium/calmodulin-dependent protein kinase type II subunit delta (Homo sapiens) (UniProt Q13557); assay: CAMK2D Invitrogen selectivity data (BI); conditions: Compound concentration 3.0 uM
[12] = target: Adenosine receptor A1 (Homo sapiens) (UniProt P30542); assay: A1/HU Eurofins-Panlabs selectivity data (BI); conditions: Compound concentration 10.0 uM
[13] = target: Mitogen-activated protein kinase 9 (Homo sapiens) (UniProt P45984); assay: MAPK9 Invitrogen selectivity data (BI); conditions: Compound concentration 3.0 uM
[14] = target: T3, Serine/threonine-protein kinase 3 (Homo sapiens) (UniProt Q13188); assay: STK3 Invitrogen selectivity data (BI); conditions: Compound concentration 3.0 uM
T3 sequence (whole entry): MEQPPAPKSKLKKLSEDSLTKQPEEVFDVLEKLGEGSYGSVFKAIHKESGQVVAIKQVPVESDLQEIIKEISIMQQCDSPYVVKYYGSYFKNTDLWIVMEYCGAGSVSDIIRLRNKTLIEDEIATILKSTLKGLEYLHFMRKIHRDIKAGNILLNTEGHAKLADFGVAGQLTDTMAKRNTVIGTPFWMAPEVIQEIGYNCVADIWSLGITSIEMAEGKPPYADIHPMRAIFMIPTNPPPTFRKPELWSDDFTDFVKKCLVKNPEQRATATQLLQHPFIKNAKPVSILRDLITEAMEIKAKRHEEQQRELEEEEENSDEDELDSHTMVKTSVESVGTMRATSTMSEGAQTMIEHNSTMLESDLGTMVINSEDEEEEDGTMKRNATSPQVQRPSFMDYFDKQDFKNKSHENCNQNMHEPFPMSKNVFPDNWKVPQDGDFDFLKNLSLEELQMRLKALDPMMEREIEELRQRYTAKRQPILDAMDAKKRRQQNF

[15] = target: Sodium channel regulatory subunit beta-1 (Rattus norvegicus) (UniProt Q00954); assay: NA+/SITE2/RA Eurofins-Panlabs selectivity data (BI); conditions: Compound concentration 10.0 uM
[16] = target: T4, Calcium/calmodulin-dependent protein kinase type IV (Homo sapiens) (UniProt Q16566); assay: CAMK4 Invitrogen selectivity data (BI); conditions: Compound concentration 3.0 uM
T4 sequence (whole entry): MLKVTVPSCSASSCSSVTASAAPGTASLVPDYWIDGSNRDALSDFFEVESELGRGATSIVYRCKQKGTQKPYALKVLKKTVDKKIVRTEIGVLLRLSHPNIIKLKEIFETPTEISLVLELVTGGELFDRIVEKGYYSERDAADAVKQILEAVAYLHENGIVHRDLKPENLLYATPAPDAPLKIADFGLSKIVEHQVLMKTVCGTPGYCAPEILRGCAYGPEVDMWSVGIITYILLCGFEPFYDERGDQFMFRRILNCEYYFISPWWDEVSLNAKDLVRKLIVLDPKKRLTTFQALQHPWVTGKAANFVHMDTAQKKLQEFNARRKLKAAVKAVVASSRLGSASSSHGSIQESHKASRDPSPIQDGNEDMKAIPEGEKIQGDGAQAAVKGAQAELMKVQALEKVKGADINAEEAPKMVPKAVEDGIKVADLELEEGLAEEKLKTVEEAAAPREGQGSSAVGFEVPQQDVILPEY

[17] = target: Adenosine receptor A2a (Homo sapiens) (UniProt P29274); assay: A2A/H Cerep selectivity data (BI); conditions: filed as antagonist, Compound concentration 20.0 uM
[18] = target: Protein kinase C delta type (Homo sapiens) (UniProt Q05655); assay: PRKCD Invitrogen selectivity data (BI); conditions: Compound concentration 3.0 uM

Measured: residual activity

Sodium channel regulatory subunit beta-1 (Rattus norvegicus), sequence (Q00954 whole entry): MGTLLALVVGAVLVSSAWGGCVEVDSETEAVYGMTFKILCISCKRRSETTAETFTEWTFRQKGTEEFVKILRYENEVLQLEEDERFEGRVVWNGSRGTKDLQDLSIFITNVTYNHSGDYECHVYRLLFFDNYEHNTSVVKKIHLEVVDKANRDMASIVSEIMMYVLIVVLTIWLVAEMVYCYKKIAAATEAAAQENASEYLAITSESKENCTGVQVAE
Interleukin-1 receptor-associated kinase 1 (Homo sapiens), sequence (P51617 whole entry, looked up): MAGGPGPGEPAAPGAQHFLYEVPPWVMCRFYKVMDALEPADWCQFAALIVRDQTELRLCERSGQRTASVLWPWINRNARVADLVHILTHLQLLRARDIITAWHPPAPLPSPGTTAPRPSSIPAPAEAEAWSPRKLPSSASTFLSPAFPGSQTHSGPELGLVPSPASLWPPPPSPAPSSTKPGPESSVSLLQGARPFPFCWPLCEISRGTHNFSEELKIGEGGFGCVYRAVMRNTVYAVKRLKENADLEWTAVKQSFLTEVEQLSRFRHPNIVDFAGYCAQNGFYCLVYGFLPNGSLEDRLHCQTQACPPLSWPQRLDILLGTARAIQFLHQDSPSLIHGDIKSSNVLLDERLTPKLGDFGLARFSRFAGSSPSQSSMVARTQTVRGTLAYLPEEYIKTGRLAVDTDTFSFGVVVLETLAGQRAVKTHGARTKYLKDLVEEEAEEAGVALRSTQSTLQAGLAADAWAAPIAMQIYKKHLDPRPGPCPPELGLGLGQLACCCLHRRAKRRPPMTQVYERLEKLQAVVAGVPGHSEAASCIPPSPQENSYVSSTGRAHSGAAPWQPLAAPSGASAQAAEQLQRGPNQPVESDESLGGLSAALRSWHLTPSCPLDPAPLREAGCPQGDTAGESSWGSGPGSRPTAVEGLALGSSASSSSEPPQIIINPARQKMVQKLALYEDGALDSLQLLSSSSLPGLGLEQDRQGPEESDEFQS
Ribosomal protein S6 kinase alpha-6 (Homo sapiens), sequence (Q9UK32 whole entry): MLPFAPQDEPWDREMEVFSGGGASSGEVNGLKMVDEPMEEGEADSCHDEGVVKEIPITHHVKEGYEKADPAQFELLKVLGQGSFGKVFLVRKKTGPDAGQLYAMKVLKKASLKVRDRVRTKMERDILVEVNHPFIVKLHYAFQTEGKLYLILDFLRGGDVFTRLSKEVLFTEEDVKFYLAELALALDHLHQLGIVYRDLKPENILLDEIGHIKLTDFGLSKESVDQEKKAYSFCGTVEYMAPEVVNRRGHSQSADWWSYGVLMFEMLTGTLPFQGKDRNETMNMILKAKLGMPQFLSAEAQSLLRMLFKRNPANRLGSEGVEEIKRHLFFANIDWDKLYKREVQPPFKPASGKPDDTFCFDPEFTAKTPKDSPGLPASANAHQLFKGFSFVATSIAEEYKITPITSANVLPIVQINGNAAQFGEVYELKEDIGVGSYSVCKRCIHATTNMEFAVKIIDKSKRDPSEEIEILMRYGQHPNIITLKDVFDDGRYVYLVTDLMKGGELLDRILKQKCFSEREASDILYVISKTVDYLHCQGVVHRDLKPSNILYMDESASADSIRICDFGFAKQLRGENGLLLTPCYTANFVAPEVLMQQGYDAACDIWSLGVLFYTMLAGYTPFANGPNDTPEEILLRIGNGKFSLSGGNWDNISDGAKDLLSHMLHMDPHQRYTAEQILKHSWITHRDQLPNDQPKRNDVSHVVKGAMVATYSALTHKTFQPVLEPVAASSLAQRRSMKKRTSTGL
Phosphatidylinositol 4-kinase beta (Homo sapiens), sequence (Q9UBF8 2-816 limits assumed): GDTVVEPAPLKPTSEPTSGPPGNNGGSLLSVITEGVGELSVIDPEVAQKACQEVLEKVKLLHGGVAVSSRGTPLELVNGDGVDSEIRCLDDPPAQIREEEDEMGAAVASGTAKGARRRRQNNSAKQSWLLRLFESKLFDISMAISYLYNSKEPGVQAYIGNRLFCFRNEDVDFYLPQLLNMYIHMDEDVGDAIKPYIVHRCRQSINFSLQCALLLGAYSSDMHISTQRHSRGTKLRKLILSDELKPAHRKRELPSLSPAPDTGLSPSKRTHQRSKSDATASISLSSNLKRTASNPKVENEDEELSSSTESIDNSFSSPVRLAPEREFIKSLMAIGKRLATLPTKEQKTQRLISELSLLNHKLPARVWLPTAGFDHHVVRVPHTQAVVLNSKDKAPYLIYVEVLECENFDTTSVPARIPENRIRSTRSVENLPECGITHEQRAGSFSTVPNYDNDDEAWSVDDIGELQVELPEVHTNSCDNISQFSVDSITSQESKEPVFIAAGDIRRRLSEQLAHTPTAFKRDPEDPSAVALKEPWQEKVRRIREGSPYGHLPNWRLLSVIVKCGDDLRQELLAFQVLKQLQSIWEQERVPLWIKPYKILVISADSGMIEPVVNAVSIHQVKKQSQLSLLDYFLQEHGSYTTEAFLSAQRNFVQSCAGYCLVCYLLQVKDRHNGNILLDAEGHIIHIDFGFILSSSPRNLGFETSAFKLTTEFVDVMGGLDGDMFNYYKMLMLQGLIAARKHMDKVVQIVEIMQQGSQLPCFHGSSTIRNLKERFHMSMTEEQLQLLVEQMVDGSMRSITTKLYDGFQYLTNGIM
Adenosine receptor A2a (Homo sapiens), sequence (P29274 whole entry): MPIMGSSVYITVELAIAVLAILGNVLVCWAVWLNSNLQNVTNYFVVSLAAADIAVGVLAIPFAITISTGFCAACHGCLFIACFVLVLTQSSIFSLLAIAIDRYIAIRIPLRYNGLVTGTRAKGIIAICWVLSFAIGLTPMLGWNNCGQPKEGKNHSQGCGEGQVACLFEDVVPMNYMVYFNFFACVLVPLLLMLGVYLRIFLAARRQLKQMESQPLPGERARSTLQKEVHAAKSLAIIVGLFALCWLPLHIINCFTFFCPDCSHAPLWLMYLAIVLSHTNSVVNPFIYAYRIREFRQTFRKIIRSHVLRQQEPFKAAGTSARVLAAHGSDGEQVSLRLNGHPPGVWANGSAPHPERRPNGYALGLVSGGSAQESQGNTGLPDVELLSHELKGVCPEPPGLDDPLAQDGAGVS
Calcium/calmodulin-dependent protein kinase type II subunit delta (Homo sapiens), sequence (Q13557 whole entry): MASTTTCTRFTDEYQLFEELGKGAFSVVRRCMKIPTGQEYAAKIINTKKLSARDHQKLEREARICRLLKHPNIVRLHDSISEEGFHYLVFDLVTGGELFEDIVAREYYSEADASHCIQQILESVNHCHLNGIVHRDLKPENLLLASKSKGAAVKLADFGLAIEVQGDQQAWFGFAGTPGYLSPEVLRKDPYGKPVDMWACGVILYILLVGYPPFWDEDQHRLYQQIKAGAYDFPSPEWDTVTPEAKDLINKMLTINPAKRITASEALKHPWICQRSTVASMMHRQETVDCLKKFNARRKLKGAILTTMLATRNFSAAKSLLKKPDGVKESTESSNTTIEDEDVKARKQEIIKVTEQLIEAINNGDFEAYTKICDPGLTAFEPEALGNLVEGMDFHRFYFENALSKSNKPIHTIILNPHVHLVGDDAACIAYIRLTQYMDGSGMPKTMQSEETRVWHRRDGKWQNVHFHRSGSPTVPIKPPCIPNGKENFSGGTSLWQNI
Macrophage-stimulating protein receptor (Homo sapiens), sequence (Q04912 25-304 limits assumed): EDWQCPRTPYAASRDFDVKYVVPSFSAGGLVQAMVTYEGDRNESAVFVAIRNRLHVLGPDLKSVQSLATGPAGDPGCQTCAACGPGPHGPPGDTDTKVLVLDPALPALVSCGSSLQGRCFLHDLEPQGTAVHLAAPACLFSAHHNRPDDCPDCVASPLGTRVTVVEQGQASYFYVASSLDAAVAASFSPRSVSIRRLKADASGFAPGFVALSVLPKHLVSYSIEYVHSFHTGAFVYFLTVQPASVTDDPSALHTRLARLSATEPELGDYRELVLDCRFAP
Macrophage-stimulating protein receptor (Homo sapiens), sequence (Q04912 310-1400 limits assumed): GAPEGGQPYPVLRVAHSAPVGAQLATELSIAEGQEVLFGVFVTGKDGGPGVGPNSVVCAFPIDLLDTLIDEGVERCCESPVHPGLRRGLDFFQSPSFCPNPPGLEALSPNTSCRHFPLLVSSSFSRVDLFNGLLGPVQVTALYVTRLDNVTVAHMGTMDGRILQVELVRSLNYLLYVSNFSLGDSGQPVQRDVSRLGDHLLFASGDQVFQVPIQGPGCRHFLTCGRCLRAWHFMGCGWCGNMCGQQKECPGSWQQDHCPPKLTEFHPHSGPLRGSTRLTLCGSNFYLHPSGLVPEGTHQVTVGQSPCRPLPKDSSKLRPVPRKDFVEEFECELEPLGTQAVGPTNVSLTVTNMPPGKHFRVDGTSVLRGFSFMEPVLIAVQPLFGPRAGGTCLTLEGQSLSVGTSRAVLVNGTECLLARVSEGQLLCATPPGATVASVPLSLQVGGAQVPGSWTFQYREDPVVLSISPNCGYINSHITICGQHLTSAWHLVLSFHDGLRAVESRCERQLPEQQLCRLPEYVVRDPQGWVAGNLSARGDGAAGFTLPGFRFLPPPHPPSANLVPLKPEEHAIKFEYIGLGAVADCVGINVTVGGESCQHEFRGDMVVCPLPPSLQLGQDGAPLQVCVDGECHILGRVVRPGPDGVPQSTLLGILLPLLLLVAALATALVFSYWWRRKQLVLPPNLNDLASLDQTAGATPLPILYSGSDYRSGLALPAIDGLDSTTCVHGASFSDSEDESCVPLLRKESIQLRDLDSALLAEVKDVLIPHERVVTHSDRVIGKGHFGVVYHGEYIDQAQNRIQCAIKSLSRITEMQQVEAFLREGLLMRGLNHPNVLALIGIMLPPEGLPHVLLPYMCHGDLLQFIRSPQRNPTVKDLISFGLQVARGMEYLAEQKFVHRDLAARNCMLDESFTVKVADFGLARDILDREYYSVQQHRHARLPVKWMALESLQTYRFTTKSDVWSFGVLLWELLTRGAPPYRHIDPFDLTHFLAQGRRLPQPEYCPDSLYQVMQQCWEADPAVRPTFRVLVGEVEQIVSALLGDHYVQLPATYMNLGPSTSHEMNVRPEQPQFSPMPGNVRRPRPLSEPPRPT

CN(C)C(=O)Cn1cc(-c2nc(C3(c4ccc(-c5cnc(N)nc5)cc4)CC3)no2)cn1 [BI 0153]
inactive: [1] 70%

CN(C)C(=O)Cn1cc(-c2nc([C@@](C)(c3ccc(-c4cnc(N)nc4)cc3)C3CC3)no2)cn1 [BI 665915]
inactive: [2] 105% | [3] 102% | [4] 107% | [5] 106% | [6] 95% | [7] 100% | [8] 95% | [9] 96.5% | [10] 111% | [11] 94.5% | [12] 75% | [13] 101% | [14] 104% | [15] 84% | [16] 86% | [17] 97% | [18] 103%
